Reference: publication PMC7411887, “New Paracyclophanylthiazoles with Anti-Leukemia Activity: Design, Synthesis, Molecular Docking, and Mechanistic Studies” (Molecules, 2020)
“Also recorded” adds a separate entry of the source.

Assays:
[1] = system: BAX; assay: BAX assay on leukemia SR cell line; format: cell-based, human; settings: for BAX Concentration: ± SD
Experimental: (§1) 19. Read the concentrations for unknown samples and controls from the standard curve.
All standards, controls and samples should be run in duplicate. […]
desiccant back into the pouch and seal the ziploc. Store unused wells at 4 °C.
4. Pipet 100 μL of the Samples into the appropriate wells.
7. Empty the contents of the wells and wash by adding 400 μL of wash solution to every well.
8. Repeat the wash 4 more times for a total of 5 washes.
9. After the final wash, empty or aspirate the wells and firmly tap the plate on a lint free paper towel to remove any remaining wash buffer.
10. Pipet 100 μL of yellow Antibody into each well, except the Blank.
12. Empty the contents of the wells and wash by adding 400 μL of wash solution to every
13. Repeat the wash 4 more times for a total of 5 washes.
14. After the final wash, empty or aspirate the wells and firmly tap the plate on a lint free
17. Empty the contents of the wells and wash by adding 400 μL of wash solution to every
18. Repeat the wash 4 more times for a total of 5 washes.
19. After the final wash, empty or aspirate the wells and firmly tap the plate on a lint free
20. Pipet 100 μL of Substrate Solution into each well.
21. Incubate for 30 minutes at room temperature on a plate shaker at ~500 rpm.
1. Mix all reagents thoroughly without foaming before use.
3. Take caution not to scratch the surface of the microwells.
5. Use the microwell strips immediately after washing or place upside down on a wet absorbent paper for not longer than 15 minutes.
Prepare standard (1:2 dilution) in duplicate ranging from 32

[2] = system: leukemia SR cells; assay: Cell cycle analysis, propidium iodide flow cytometry; settings: for DNA Content % %G0-G1 / DNA Content % %G2-M / DNA Content % %Pre G1 / DNA Content % %S: at IC50, 24 h
[3] = system: caspase-3; assay: Caspase-3 ELISA on leukemia SR cell line; format: cell-based, human; settings: for Caspase 3 Conc: ± SD
Experimental: Since caspase-3 is important for spreading the apoptotic signal after exposure to antimitotic compounds [38], the effect of compound 3a on the caspase-3 activated enzyme was evaluated using ELISA and replicated three times. The reference compound and 3a were incubated for 30 min at room temperature in the dark on the leukemia SR cell line. […]
color. Add 50 μL of Stop solution into each well and mix thoroughly. The color changes […]
9. Read the O.D. absorbance at 450 nm in a micro-plate reader immediately after adding the
Caspase assay is performed according to the following procedures:
1. Allowing all reagents to reach room temperature before use. Gently mix all liquid reagents prior to use (Note: A standard curve must be run with each assay).
2. Determine the number of 8-well strips needed for the assay. Insert these in the frame(s) for current use. (Re-bag extra strips and frame. Store these in the refrigerator for future […]
3. Add 100 μL of the Standard Diluent Buffer to the zero standard wells. Well(s) reserved for chromogen blank should be left empty.
4. Add 100 μL of standards and controls or diluted samples to the appropriate microtiter wells. The sample dilution chosen should be optimized for each experimental system.
Tap gently on side of plate to mix.
5. Cover wells with plate cover and incubate for 2 hours at room temperature.
6. Thoroughly aspirate or decant solution from wells and discard the liquid. Wash wells 4 times. See Directions for Washing.
7. Pipette 100 μL of Caspase-3 (Active) Detection Antibody solution into each well except the chromogen blank(s). Tap gently on the side of the plate to mix.
8. Cover plate with plate cover and incubate for 1 h at room temperature.
9. Thoroughly aspirate or decant solution from wells and discard the liquid.
10. Wash wells 4 times. See Directions for Washing.
11. Add 100 μL Anti-Rabbit IgG HRP Working Solution to each well except the chromogen blank(s). Prepare the working dilution as described in Preparing IgG HRP.
12. Cover wells with the plate cover and incubate for 30 minutes at room temperature.
13. Thoroughly aspirate or decant solution from wells and discard the liquid. Wash wells 4
14. Add 100 μL of Stabilized Chromogen to each well. The liquid in the wells will begin to
15. Incubate for 30 min at room temperature and in the dark. […]
with aluminum foil or metalized mylar. The incubation time for chromogen substrate is often determined by the microtiter plate reader used. Many plate readers have the capacity to record a maximum optical density (O.D.) of 2.0. The O.D. values should be monitored and the substrate reaction stopped before the O.D. of the positive wells exceeds the limits of the instrument. The O.D. values at 450 nm can only be read after the Stop Solution has been added to each well. If using a reader that records only to 2.0 O.D., […]
16. Add 100 μL of Stop Solution to each well. Tap side of plate gently to mix. The solution in the wells should change from blue to yellow.
17. Read the absorbance of each well at 450 nm having blanked the plate reader against a chromogen blank composed of 100 μL each of Stabilized Chromogen and Stop Solution.
Read the plate within 2 hours after adding the Stop Solution.
18. Use a curve fitting software to generate the standard curve. A four-parameter algorithm provides the best standard curve fit.
as §1
Multiply value(s) obtained for sample(s) by the appropriate dilution factor to correct for the dilution in step 3. […]

| Compound | BAX Concentration [1] [pg/mL] | DNA Content % Comment [2] | DNA Content % %G0-G1 [2] [%] | DNA Content % %G2-M [2] [%] | DNA Content % %Pre G1 [2] [%] | DNA Content % %S [2] [%] | level of active caspase-3 [3] [ng/mL] | Caspase 3 Conc [3] [pg/mL] | BAX Fold Change ([1]; relative to control) [fold] | Caspase 3 Fold Change ([3]; relative to control) [fold] |
| --- | --- | --- | --- | --- | --- | --- | --- | --- | --- | --- |
| COc1cc2c(c(OC)c1OC)-c1ccc(OC)c(=O)cc1[C@@H](NC(C)=O)CC2 [Colchicine, colchicine, reference compound] | 341.8 ± 4.310 | cell growth arrest (G2/M) | 26.58 | 48.15 ± 1.000 | 36.24 | 25.27 | 428.9 | 428.9 ± 5.47 |  |  |
| COC(=O)C=C1SC(=NNC(=O)c2cc3ccc2CCc2ccc(cc2)CC3)N(c2ccccc2)C1=O [Compound 3a] | 359 ± 3.830 | significant growth arrest at the G2/M phase; also recorded: cell growth arrest (G2/M) | 31.47 | 44.74 ± 0.1747 | 33.71 | 23.79 | 471.2 | 471.2 ± 6.11 | ~7.98 | 8.84 |
